# “And” between values parts separate entries of the source, which are not always exact repeats. Equal values may be shown once.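 Five compound concentrations were applied to cells in 96-well plates for 48 hours; endpoints were derived by simple linear interpolation of the resulting dose-response curve. GI50 is the concentration that inhibits growth by half. TGI: concentration producing complete growth inhibition.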
# What was measured:
# Assay in all cases: NCI tumour cell line growth inhibition, 48 h
# 786-0 renal = system: 786-0 renal
# A549 NSCLC = system: A549 NSCLC
# ACHN renal = system: ACHN renal
# BT-549 breast = system: BT-549 breast
# CAKI-1 renal = system: CAKI-1 renal
# CCRF-CEM leukemia = system: CCRF-CEM leukemia
# COLO 205 colon = system: COLO 205 colon
# DLD-1 colon = system: DLD-1 colon
# DMS 114 small cell lung = system: DMS 114 small cell lung
# DMS 273 small cell lung = system: DMS 273 small cell lung
# DU-145 prostate = system: DU-145 prostate
# EKVX NSCLC = system: EKVX NSCLC
# HCC-2998 colon = system: HCC-2998 colon
# HCT-116 colon = system: HCT-116 colon
# HCT-15 colon = system: HCT-15 colon
# HOP-18 NSCLC = system: HOP-18 NSCLC
# HOP-62 NSCLC = system: HOP-62 NSCLC
# HOP-92 NSCLC = system: HOP-92 NSCLC
# HS 578T breast = system: HS 578T breast
# HT29 colon = system: HT29 colon
# IGROV1 ovarian = system: IGROV1 ovarian
# K-562 leukemia = system: K-562 leukemia
# KM12 colon = system: KM12 colon
# KM20L2 colon = system: KM20L2 colon
# LOX IMVI melanoma = system: LOX IMVI melanoma
# M14 melanoma = system: M14 melanoma
# M19-MEL melanoma = system: M19-MEL melanoma
# MALME-3M melanoma = system: MALME-3M melanoma
# MCF7 breast = system: MCF7 breast
# MDA-MB-231 breast = system: MDA-MB-231 breast
# MDA-MB-435 = system: MDA-MB-435
# MOLT-4 leukemia = system: MOLT-4 leukemia
# NCI-H226 lung = system: NCI-H226 lung
# NCI-H23 lung = system: NCI-H23 lung
# NCI-H460 lung = system: NCI-H460 lung
# NCI-H522 lung = system: NCI-H522 lung
# NCI/ADR-RES ovarian = system: NCI/ADR-RES ovarian
# OVCAR-3 ovarian = system: OVCAR-3 ovarian
# OVCAR-4 ovarian = system: OVCAR-4 ovarian
# OVCAR-5 ovarian = system: OVCAR-5 ovarian
# OVCAR-8 ovarian = system: OVCAR-8 ovarian
# P388 leukemia = system: P388 leukemia
# P388/ADR leukemia = system: P388/ADR leukemia
# PC-3 prostate = system: PC-3 prostate
# RPMI-8226 leukemia = system: RPMI-8226 leukemia
# RXF 393 renal = system: RXF 393 renal
# SF-268 CNS = system: SF-268 CNS
# SF-295 CNS = system: SF-295 CNS
# SF-539 CNS = system: SF-539 CNS
# SK-MEL-2 melanoma = system: SK-MEL-2 melanoma
# SK-MEL-28 melanoma = system: SK-MEL-28 melanoma
# SK-MEL-5 melanoma = system: SK-MEL-5 melanoma
# SK-OV-3 ovarian = system: SK-OV-3 ovarian
# SN12C renal = system: SN12C renal
# SNB-19 CNS = system: SNB-19 CNS
# SNB-75 CNS = system: SNB-75 CNS
# SNB-78 CNS = system: SNB-78 CNS
# SR leukemia = system: SR leukemia
# SW-620 colon = system: SW-620 colon
# T-47D breast = system: T-47D breast
# TK-10 renal = system: TK-10 renal
# U251 CNS = system: U251 CNS
# UACC-257 melanoma = system: UACC-257 melanoma
# UACC-62 melanoma = system: UACC-62 melanoma
# UO-31 renal = system: UO-31 renal
# XF 498 CNS = system: XF 498 CNS
smiles,measurement,setting,value
O=C1C=C2C(=CCOC2O)O1 (stereo not drawn),GI50,786-0 renal,2.67 µM
same,TGI,786-0 renal,7.06 µM
same,GI50,A549 NSCLC,5.51 µM
same,TGI,A549 NSCLC,21.2 µM and 22.2 µM
same,GI50,ACHN renal,1.28 µM
same,TGI,ACHN renal,3.34 µM
same,GI50,BT-549 breast,3.28 µM
same,TGI,BT-549 breast,9.67 µM
same,GI50,CAKI-1 renal,1.06 µM and 1 µM
same,TGI,CAKI-1 renal,2.3 µM and 2.5 µM
same,GI50,CCRF-CEM leukemia,1.11 µM
same,TGI,CCRF-CEM leukemia,0.709 µM and 6.03 µM
same,GI50,COLO 205 colon,0.395 µM and 0.655 µM
same,TGI,COLO 205 colon,1.04 µM and 1.97 µM
same,TGI,DLD-1 colon,2.07 µM
same,TGI,DMS 114 small cell lung,3.29 µM
same,TGI,DMS 273 small cell lung,2.41 µM
same,GI50,DU-145 prostate,2.07 µM
same,TGI,DU-145 prostate,6.48 µM
same,GI50,EKVX NSCLC,1.76 µM and 10.6 µM
same,TGI,EKVX NSCLC,4.64 µM and 40.4 µM
same,GI50,HCC-2998 colon,11.4 µM
same,GI50,HCT-116 colon,1.14 µM
same,TGI,HCT-116 colon,0.544 µM and 2.4 µM
same,GI50,HCT-15 colon,1.25 µM
same,TGI,HCT-15 colon,1.98 µM and 3.23 µM
same,TGI,HOP-18 NSCLC,4.77 µM
same,TGI,HOP-62 NSCLC,20.5 µM and 23.4 µM
same,GI50,HOP-92 NSCLC,2.64 µM
same,TGI,HOP-92 NSCLC,6.11 µM and 7.84 µM
same,GI50,HS 578T breast,2.14 µM
same,TGI,HS 578T breast,9.84 µM
same,GI50,HT29 colon,6.05 µM and 1.16 µM
same,TGI,HT29 colon,22.7 µM and 3.37 µM
same,GI50,IGROV1 ovarian,2.59 µM
same,TGI,IGROV1 ovarian,9.78 µM and 6.24 µM
same,GI50,K-562 leukemia,0.905 µM and 1.79 µM
same,TGI,K-562 leukemia,3.22 µM and 10.7 µM
same,GI50,KM12 colon,0.783 µM and 3.08 µM
same,TGI,KM12 colon,1.85 µM and 11.2 µM
same,TGI,KM20L2 colon,12.1 µM
same,GI50,LOX IMVI melanoma,0.227 µM and 1.57 µM
same,TGI,LOX IMVI melanoma,0.665 µM and 3.33 µM
same,GI50,M14 melanoma,1.59 µM
same,TGI,M14 melanoma,3.08 µM
same,TGI,M19-MEL melanoma,8.14 µM
same,TGI,MALME-3M melanoma,2.04 µM
same,TGI,MCF7 breast,17.3 µM and 13.7 µM
same,GI50,MDA-MB-231 breast,1.96 µM
same,TGI,MDA-MB-231 breast,5.07 µM
same,GI50,MDA-MB-435,1.64 µM
same,TGI,MDA-MB-435,3.86 µM
same,GI50,MOLT-4 leukemia,3.66 µM
same,TGI,MOLT-4 leukemia,1.61 µM and 10.7 µM
same,TGI,NCI-H226 lung,6.92 µM
same,GI50,NCI-H23 lung,2.73 µM
same,TGI,NCI-H23 lung,4.14 µM and 10.6 µM
same,GI50,NCI-H460 lung,3.86 µM
same,TGI,NCI-H460 lung,2.41 µM and 18.3 µM
same,GI50,NCI-H522 lung,1.12 µM
same,TGI,NCI-H522 lung,1.07 µM and 2.52 µM
same,GI50,NCI/ADR-RES ovarian,2.76 µM
same,TGI,NCI/ADR-RES ovarian,4.35 µM and 12.5 µM
same,GI50,OVCAR-3 ovarian,1.7 µM and 0.664 µM
same,TGI,OVCAR-3 ovarian,4.06 µM and 2.19 µM
same,TGI,OVCAR-4 ovarian,12.5 µM
same,GI50,OVCAR-5 ovarian,2.97 µM
same,TGI,OVCAR-5 ovarian,15.8 µM and 7.74 µM
same,GI50,OVCAR-8 ovarian,0.734 µM and 2.57 µM
same,TGI,OVCAR-8 ovarian,5.07 µM and 9.22 µM
same,TGI,P388 leukemia,0.439 µM
same,TGI,P388/ADR leukemia,0.569 µM
same,GI50,PC-3 prostate,4.69 µM
same,TGI,PC-3 prostate,17.1 µM
same,GI50,RPMI-8226 leukemia,3.6 µM
same,GI50,RXF 393 renal,0.213 µM and 1.1 µM
same,TGI,RXF 393 renal,0.761 µM and 3 µM
same,GI50,SF-268 CNS,1.1 µM and 3.66 µM
same,TGI,SF-268 CNS,8.18 µM and 13.9 µM
same,GI50,SF-295 CNS,3.34 µM and 6.25 µM
same,TGI,SF-295 CNS,8.88 µM and 22.4 µM
same,GI50,SF-539 CNS,0.941 µM and 1.77 µM
same,TGI,SF-539 CNS,2.13 µM and 4.57 µM
same,TGI,SK-MEL-2 melanoma,13.6 µM
same,GI50,SK-MEL-28 melanoma,1.28 µM and 2.37 µM
same,TGI,SK-MEL-28 melanoma,3.38 µM and 5.83 µM
same,GI50,SK-MEL-5 melanoma,2.43 µM
same,TGI,SK-MEL-5 melanoma,3.17 µM and 9.05 µM
same,GI50,SK-OV-3 ovarian,11.5 µM and 12.2 µM
same,TGI,SK-OV-3 ovarian,20.6 µM and 24.6 µM
same,GI50,SN12C renal,2.59 µM
same,TGI,SN12C renal,1.86 µM and 10 µM
same,GI50,SNB-19 CNS,3.23 µM and 12.8 µM
same,TGI,SNB-19 CNS,9.77 µM and 27.8 µM
same,GI50,SNB-75 CNS,2.82 µM
same,TGI,SNB-75 CNS,10.1 µM and 13.2 µM
same,TGI,SNB-78 CNS,11.6 µM
same,GI50,SR leukemia,2.11 µM
same,TGI,SR leukemia,8.51 µM
same,GI50,SW-620 colon,0.395 µM and 0.443 µM
same,TGI,SW-620 colon,1.23 µM and 1.88 µM
same,GI50,T-47D breast,1.4 µM
same,TGI,T-47D breast,4.64 µM
same,GI50,TK-10 renal,0.259 µM
same,TGI,TK-10 renal,0.652 µM
same,GI50,U251 CNS,6.92 µM and 2.65 µM
same,TGI,U251 CNS,14.6 µM and 10 µM
same,TGI,UACC-257 melanoma,3.85 µM
same,GI50,UACC-62 melanoma,1.55 µM
same,TGI,UACC-62 melanoma,1.64 µM and 3.2 µM
same,GI50,UO-31 renal,3.98 µM and 1.24 µM
same,TGI,UO-31 renal,8.77 µM and 6.43 µM
same,TGI,XF 498 CNS,0.419 µM
